Data taken from ChEMBL document CHEMBL4002566, “S-substituted 3,5-dinitrophenyl 1,3,4-oxadiazole-2-thiols and tetrazole-5-thiols as highly efficient antitubercular agents” (Eur J Med Chem, 2017).
In brackets after ≈: the same amount, converted by molar mass.

Assays:
Pichia kudriavzevii [1] = assay: Antifungal activity against Candida krusei E28 after 24 hrs by broth microdilution method; type: functional; settings: E28, 24 h
[2] = Cytotoxicity against human HepG2 cells assessed as cell viability at 30 uM after 48 hrs by MTS assay relative to control; type: cell-based; settings: read-out: Activity
Trichosporon asahii [3] = assay: Antifungal activity against Trichosporon asahii 1188 after 48 hrs by broth microdilution method; type: functional; settings: Trichosporon asahii, 1188, 48 h
Mycobacterium kansasii [4] = assay: Antimycobacterial activity against Mycobacterium kansasii CNCTC My 235/80 after 14 days by micromethod; type: functional; settings: CNCTC My 235/80, 336 h
Nakaseomyces glabratus [5] = assay: Antifungal activity against Candida glabrata 20/I after 24 hrs by broth microdilution method; type: functional
Staphylococcus aureus [6] = assay: Antibacterial activity against Staphylococcus aureus ATCC 6538 after 48 hrs by broth microdilution method; type: functional; settings: ATCC 6538, 48 h
[7] = Cytotoxicity against MDCK cells assessed as cell viability at 30 uM after 48 hrs by MTS assay relative to control; type: cell-based, Canis lupus familiaris; settings: dog, read-out: Activity
[8] = tested on: Staphylococcus epidermidis; assay: Antibacterial activity against Staphylococcus epidermidis HK6996/08 after 24 hrs by broth microdilution method; type: functional; settings: HK6996/08, 24 h
Huh-7 = assay: Cytotoxicity against human HuH7 cells assessed as cell viability after 48 hrs by MTS assay; type: cell-based; settings: Huh-7, 48 h
Staphylococcus aureus [9] = assay: Antibacterial activity against Staphylococcus aureus ATCC 6538 after 24 hrs by broth microdilution method; type: functional; settings: ATCC 6538, 24 h
Aspergillus fumigatus [10] = assay: Antifungal activity against Aspergillus fumigatus 231 after 24 hrs by broth microdilution method; type: functional; settings: Aspergillus fumigatus, 231, 24 h
Mycobacterium kansasii [11] = assay: Antimycobacterial activity against Mycobacterium kansasii 6509/96 clinical isolate after 21 days by micromethod; type: functional; settings: 6509/96, 504 h
Klebsiella pneumoniae [12] = assay: Antibacterial activity against Klebsiella pneumoniae HK11750/08 after 48 hrs by broth microdilution method; type: functional; settings: HK11750/08, 48 h
Mycobacterium kansasii [13] = assay: Antimycobacterial activity against Mycobacterium kansasii CNCTC My 235/80 after 7 days by micromethod; type: functional; settings: CNCTC My 235/80, 168 h
Escherichia coli [14] = assay: Antibacterial activity against Escherichia coli ATCC 8739 after 24 hrs by broth microdilution method; type: functional; settings: ATCC 8739, 24 h
Klebsiella pneumoniae [15] = assay: Antibacterial activity against extended spectrum beta-lactamase producing Klebsiella pneumoniae HK14368/08 after 48 hrs by broth microdilution method; type: functional; settings: HK14368/08, 48 h
Enterococcus sp. [16] = assay: Antibacterial activity against Enterococcus sp. HK14365/08 after 48 hrs by broth microdilution method; type: functional; settings: HK14365/08, 48 h
A-431 = assay: Cytotoxicity against human A431 cells assessed as cell viability after 48 hrs by MTS assay; type: cell-based; settings: A-431, 48 h
Pseudomonas aeruginosa [17] = assay: Antibacterial activity against Pseudomonas aeruginosa ATCC 9027 after 24 hrs by broth microdilution method; type: functional; settings: ATCC 9027, 24 h
[18] = tested on: Mycobacterium tuberculosis; assay: Antimycobacterial activity against Mycobacterium tuberculosis CNCTC My 331/88 after 21 days by micromethod; type: functional; settings: CNCTC My 331/88, 504 h
[19] = Selectivity index, ratio of IC50 for human HepG2 cells to MIC for Mycobacterium tuberculosis; type: toxicity; settings: read-out: Selectivity Index
Lichtheimia corymbifera [20] = assay: Antifungal activity against Absidia corymbifera 272 after 48 hrs by broth microdilution method; type: functional; settings: Lichtheimia corymbifera, 272, 48 h
Klebsiella pneumoniae [21] = assay: Antibacterial activity against extended spectrum beta-lactamase producing Klebsiella pneumoniae HK14368/08 after 24 hrs by broth microdilution method; type: functional; settings: HK14368/08, 24 h
Candida tropicalis [22] = assay: Antifungal activity against Candida tropicalis 156 after 48 hrs by broth microdilution method; type: functional; settings: Candida tropicalis, 156, 48 h
Mycobacterium kansasii [23] = assay: Antimycobacterial activity against Mycobacterium kansasii CNCTC My 235/80 after 21 days by micromethod; type: functional; settings: CNCTC My 235/80, 504 h
Pseudomonas aeruginosa [24] = assay: Antibacterial activity against Pseudomonas aeruginosa ATCC 9027 after 48 hrs by broth microdilution method; type: functional; settings: ATCC 9027, 48 h
Mycobacterium kansasii [25] = assay: Antimycobacterial activity against Mycobacterium kansasii 6509/96 clinical isolate after 14 days by micromethod; type: functional; settings: 6509/96, 336 h
Enterococcus sp. [26] = assay: Antibacterial activity against Enterococcus sp. HK14365/08 after 24 hrs by broth microdilution method; type: functional; settings: HK14365/08, 24 h
[27] = tested on: Trichophyton mentagrophytes; assay: Antifungal activity against Trichophyton mentagrophytes 445 after 72 hrs by broth microdilution method; type: functional; settings: Trichophyton mentagrophytes, 445, 72 h
HepG2 = assay: Cytotoxicity against human HepG2 cells assessed as cell viability after 48 hrs by MTS assay; type: cell-based; settings: HepG2, 48 h
Candida albicans [28] = assay: Antifungal activity against Candida albicans ATCC 44859 after 24 hrs by broth microdilution method; type: functional; settings: ATCC 44859, 24 h
[29] = tested on: Staphylococcus epidermidis; assay: Antibacterial activity against Staphylococcus epidermidis HK6996/08 after 48 hrs by broth microdilution method; type: functional; settings: HK6996/08, 48 h
Candida albicans [30] = assay: Antifungal activity against Candida albicans ATCC 44859 after 48 hrs by broth microdilution method; type: functional; settings: ATCC 44859, 48 h
MDCK = assay: Cytotoxicity against MDCK cells assessed as cell viability after 48 hrs by MTS assay; type: cell-based; settings: Canis lupus familiaris
Mycobacterium avium [31] = assay: Antimycobacterial activity against Mycobacterium avium CNCTC My 330/88 after 21 days by micromethod; type: functional; settings: CNCTC My 330/88, 504 h
[32] = Cytotoxicity against human HuH7 cells assessed as cell viability at 30 uM after 48 hrs by MTS assay relative to control; type: cell-based, Huh-7; settings: read-out: Activity
Klebsiella pneumoniae [33] = assay: Antibacterial activity against Klebsiella pneumoniae HK11750/08 after 24 hrs by broth microdilution method; type: functional; settings: HK11750/08, 24 h
Lichtheimia corymbifera [34] = assay: Antifungal activity against Absidia corymbifera 272 after 24 hrs by broth microdilution method; type: functional; settings: Lichtheimia corymbifera, 272, 24 h
Candida tropicalis [35] = assay: Antifungal activity against Candida tropicalis 156 after 24 hrs by broth microdilution method; type: functional; settings: Candida tropicalis, 156, 24 h
Nakaseomyces glabratus [36] = assay: Antifungal activity against Candida glabrata 20/I after 48 hrs by broth microdilution method; type: functional
Pichia kudriavzevii [37] = assay: Antifungal activity against Candida krusei E28 after 48 hrs by broth microdilution method; type: functional; settings: E28, 48 h
[38] = tested on: Mycobacterium tuberculosis; assay: Antimycobacterial activity against Mycobacterium tuberculosis CNCTC My 331/88 after 14 days by micromethod; type: functional; settings: CNCTC My 331/88, 336 h
Escherichia coli [39] = assay: Antibacterial activity against Escherichia coli ATCC 8739 after 48 hrs by broth microdilution method; type: functional; settings: ATCC 8739, 48 h
[40] = Cytotoxicity against human A431 cells assessed as cell viability at 30 uM after 48 hrs by MTS assay relative to control; type: cell-based, A-431; settings: read-out: Activity
Trichosporon asahii [41] = assay: Antifungal activity against Trichosporon asahii 1188 after 24 hrs by broth microdilution method; type: functional; settings: Trichosporon asahii, 1188, 24 h
Aspergillus fumigatus [42] = assay: Antifungal activity against Aspergillus fumigatus 231 after 48 hrs by broth microdilution method; type: functional; settings: Aspergillus fumigatus, 231, 48 h
Staphylococcus aureus [43] = assay: Antibacterial activity against methicillin-resistant Staphylococcus aureus HK5996/08 after 48 hrs by broth microdilution method; type: functional; settings: HK5996/08, 48 h
[44] = tested on: Trichophyton mentagrophytes; assay: Antifungal activity against Trichophyton mentagrophytes 445 after 120 hrs by broth microdilution method; type: functional; settings: Trichophyton mentagrophytes, 445, 120 h
Staphylococcus aureus [45] = assay: Antibacterial activity against methicillin-resistant Staphylococcus aureus HK5996/08 after 24 hrs by broth microdilution method; type: functional; settings: HK5996/08, 24 h
Mycobacterium kansasii [46] = assay: Antimycobacterial activity against Mycobacterium kansasii 6509/96 clinical isolate after 7 days by micromethod; type: functional; settings: 6509/96, 168 h
Mycobacterium avium [47] = assay: Antimycobacterial activity against Mycobacterium avium CNCTC My 330/88 after 14 days by micromethod; type: functional; settings: CNCTC My 330/88, 336 h

O=[N+]([O-])c1cc(-c2nnc(SCc3ccccc3Cl)o2)cc([N+](=O)[O-])c1
MIC (Pichia kudriavzevii [1]): > 500 µM
viability at 48 h, 30 µM [2]: 129%
MIC (Trichosporon asahii [3]): > 500 µM
MIC (Mycobacterium kansasii [4]): 0.125 µM (≈ 0.0491 µg/mL)
MIC (Nakaseomyces glabratus [5]): > 500 µM
MIC (Staphylococcus aureus [6]): > 500 µM
viability at 48 h, 30 µM [7]: 115%
MIC [8]: > 500 µM
IC50 (Huh-7): > 30 µM
MIC (Staphylococcus aureus [9]): > 500 µM
MIC (Aspergillus fumigatus [10]): > 500 µM
MIC (Mycobacterium kansasii [11]): 0.125 µM (≈ 0.0491 µg/mL)
MIC (Klebsiella pneumoniae [12]): > 500 µM
MIC (Mycobacterium kansasii [13]): 0.06 µM (≈ 0.0236 µg/mL)
MIC (Escherichia coli [14]): > 500 µM
MIC (Klebsiella pneumoniae [15]): > 500 µM
MIC (Enterococcus sp. [16]): > 500 µM
IC50 (A-431): > 30 µM
MIC (Pseudomonas aeruginosa [17]): > 500 µM
MIC [18]: 0.03 µM (≈ 0.0118 µg/mL)
selectivity ratio [19]: > 1000
MIC (Lichtheimia corymbifera [20]): > 500 µM
MIC (Klebsiella pneumoniae [21]): > 500 µM
MIC (Candida tropicalis [22]): > 500 µM
MIC (Mycobacterium kansasii [23]): 0.125 µM (≈ 0.0491 µg/mL)
MIC (Pseudomonas aeruginosa [24]): > 500 µM
MIC (Mycobacterium kansasii [25]): 0.06 µM (≈ 0.0236 µg/mL)
MIC (Enterococcus sp. [26]): > 500 µM
MIC [27]: > 500 µM
IC50 (HepG2): > 30 µM
MIC (Candida albicans [28]): > 500 µM
MIC [29]: > 500 µM
MIC (Candida albicans [30]): > 500 µM
IC50 (MDCK): > 30 µM
MIC (Mycobacterium avium [31]): 8 µM (≈ 3.14 µg/mL)
viability at 48 h, 30 µM [32]: 144%
MIC (Klebsiella pneumoniae [33]): > 500 µM
MIC (Lichtheimia corymbifera [34]): > 500 µM
MIC (Candida tropicalis [35]): > 500 µM
MIC (Nakaseomyces glabratus [36]): > 500 µM
MIC (Pichia kudriavzevii [37]): > 500 µM
MIC [38]: 0.03 µM (≈ 0.0118 µg/mL)
MIC (Escherichia coli [39]): > 500 µM
viability at 48 h, 30 µM [40]: 91%
MIC (Trichosporon asahii [41]): > 500 µM
MIC (Aspergillus fumigatus [42]): > 500 µM
MIC (Staphylococcus aureus [43]): > 500 µM
MIC [44]: > 500 µM
MIC (Staphylococcus aureus [45]): > 500 µM
MIC (Mycobacterium kansasii [46]): 0.06 µM (≈ 0.0236 µg/mL)
MIC (Mycobacterium avium [47]): 4 µM (≈ 1.57 µg/mL)

O=[N+]([O-])c1cc(-c2nnc(SCc3cccc(Cl)c3)o2)cc([N+](=O)[O-])c1
viability at 48 h, 30 µM [2]: 129%
MIC (Mycobacterium kansasii [4]): 0.06 µM (≈ 0.0236 µg/mL)
viability at 48 h, 30 µM [7]: 105%
IC50 (Huh-7): > 30 µM
MIC (Mycobacterium kansasii [11]): 0.06 µM (≈ 0.0236 µg/mL)
MIC (Mycobacterium kansasii [13]): 0.06 µM (≈ 0.0236 µg/mL)
IC50 (A-431): > 30 µM
MIC [18]: 0.06 µM (≈ 0.0236 µg/mL)
selectivity ratio [19]: > 1000
MIC (Mycobacterium kansasii [23]): 0.06 µM (≈ 0.0236 µg/mL)
MIC (Mycobacterium kansasii [25]): 0.06 µM (≈ 0.0236 µg/mL)
IC50 (HepG2): > 30 µM
IC50 (MDCK): > 30 µM
MIC (Mycobacterium avium [31]): 8 µM (≈ 3.14 µg/mL)
viability at 48 h, 30 µM [32]: 158%
MIC [38]: 0.03 µM (≈ 0.0118 µg/mL)
viability at 48 h, 30 µM [40]: 105%
MIC (Mycobacterium kansasii [46]): 0.03 µM (≈ 0.0118 µg/mL)
MIC (Mycobacterium avium [47]): 4 µM (≈ 1.57 µg/mL)
